According to PMC10892041, “Vanadium Complexes with Thioanilide Derivatives of Amino Acids: Inhibition of Human Phosphatases and Specificity in Various Cell Models of Metabolic Disturbances” (Pharmaceuticals, 2024):

Key:
PTP1B = biological target: T1, PTP1B (Homo sapiens, UniProt P18031); experiment: Inhibition of human recombinant tyrosine phosphatase PTP1B (DiFMUP fluorescence); format: biochemical; details: 1 µM; control solvent only; SD did not exceed 6%
T1 construct: purchased Sigma-Aldrich
T1 sequence (P18031 1-435): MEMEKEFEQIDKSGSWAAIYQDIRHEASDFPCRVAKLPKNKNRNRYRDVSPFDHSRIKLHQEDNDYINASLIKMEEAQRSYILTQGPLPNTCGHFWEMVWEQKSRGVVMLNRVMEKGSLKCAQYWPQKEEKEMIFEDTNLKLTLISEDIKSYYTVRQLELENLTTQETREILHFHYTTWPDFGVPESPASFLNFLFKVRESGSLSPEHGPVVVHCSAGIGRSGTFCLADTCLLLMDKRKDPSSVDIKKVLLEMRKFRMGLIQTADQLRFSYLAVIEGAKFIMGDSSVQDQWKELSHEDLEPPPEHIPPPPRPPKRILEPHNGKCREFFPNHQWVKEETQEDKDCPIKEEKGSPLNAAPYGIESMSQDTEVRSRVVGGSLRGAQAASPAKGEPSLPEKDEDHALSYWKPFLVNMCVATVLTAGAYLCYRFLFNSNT
Procedure, shortened: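 Human recombinant PTP1B (final 50 ng/mL) in buffer of 25 mM MOPS, 50 mM NaCl, 1 mM DTT and 0.05% Tween-20 (pH 7.0) was dispensed onto test compound in black 384-well plates. After 10 min, DiFMUP was added to 0.1 mM. Plates were incubated 20 min at 23 °C and fluorescence read (ex 355, em 560 nm). Assays were run in triplicate, with inhibition relative to enzyme-plus-vehicle control and IC50 fitted in GraphPad Prism.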

LAR = biological target: T2, LAR (Homo sapiens, UniProt P10586); experiment: Inhibition of human recombinant tyrosine phosphatase LAR (DiFMUP fluorescence); format: biochemical; details: 1 µM; control solvent only; SD did not exceed 6%
T2 sequence (P10586 1352-1607 limits assumed): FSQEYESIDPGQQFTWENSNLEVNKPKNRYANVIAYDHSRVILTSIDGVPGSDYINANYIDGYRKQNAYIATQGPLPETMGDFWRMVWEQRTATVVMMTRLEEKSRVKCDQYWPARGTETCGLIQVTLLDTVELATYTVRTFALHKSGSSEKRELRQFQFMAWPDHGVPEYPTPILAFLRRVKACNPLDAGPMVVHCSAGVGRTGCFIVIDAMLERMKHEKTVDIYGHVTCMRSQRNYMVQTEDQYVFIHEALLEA
Procedure, shortened: (§1)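 Human recombinant phosphatases (SHP1 400 ng/mL, SHP2 50 ng/mL, LAR 5 ng/mL final) were pre-incubated 10 min with compound in 25 mM MOPS pH 7.0, 50 mM NaCl, 1 mM DTT, 0.05% Tween-20. DiFMUP (0.1 mM final) was added for 20 min at 23 °C and fluorescence read at 355/560 nm. Screening used 1 µM compound (% inhibition vs vehicle); IC50 also reported.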

SHP1 = biological target: T3, SHP1 (Homo sapiens, UniProt P29350); experiment: Inhibition of human recombinant tyrosine phosphatase SHP1 (DiFMUP fluorescence); format: biochemical; details: 1 µM; control solvent only; SD did not exceed 6%
T3 construct: purchased Sigma-Aldrich
Procedure, shortened: as §1

SHP2 = biological target: T4, SHP2 (Homo sapiens, UniProt Q06124); experiment: Inhibition of human recombinant tyrosine phosphatase SHP2 (DiFMUP fluorescence); format: biochemical; details: 1 µM; control solvent only; SD did not exceed 6%
T4 construct: purchased Sigma-Aldrich
T4 sequence (Q06124 1-593): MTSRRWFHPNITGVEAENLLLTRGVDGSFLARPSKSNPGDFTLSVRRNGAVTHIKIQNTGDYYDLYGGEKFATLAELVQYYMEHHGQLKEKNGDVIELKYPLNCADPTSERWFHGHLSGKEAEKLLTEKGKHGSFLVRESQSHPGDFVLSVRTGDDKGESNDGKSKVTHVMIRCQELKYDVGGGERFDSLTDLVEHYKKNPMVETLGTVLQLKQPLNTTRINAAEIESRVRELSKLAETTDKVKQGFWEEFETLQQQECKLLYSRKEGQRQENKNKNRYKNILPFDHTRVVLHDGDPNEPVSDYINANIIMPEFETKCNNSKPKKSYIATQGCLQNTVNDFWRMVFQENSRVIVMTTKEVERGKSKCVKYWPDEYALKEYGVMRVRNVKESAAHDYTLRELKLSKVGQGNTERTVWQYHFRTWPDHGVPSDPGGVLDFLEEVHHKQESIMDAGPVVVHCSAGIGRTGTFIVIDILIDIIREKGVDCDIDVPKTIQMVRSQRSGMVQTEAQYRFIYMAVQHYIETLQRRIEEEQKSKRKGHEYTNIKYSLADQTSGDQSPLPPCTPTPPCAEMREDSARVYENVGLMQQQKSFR
Procedure, shortened: as §1

adipocytes 3T3-L1 = tested on: adipocytes 3T3-L1; design: method as in doi:10.1016/j.poly.2020.114589; details: 50 µM; previously published by the authors; cited from earlier work
hepatocytes HepG2 [1] = details: 1 mM
Procedure: Hepatocytes HepG2, myocytes C2C12 (after 8 days differentiation), and adipocytes 3T3-L1 (after 11 days of differentiation) were cultured and maintained as described in the section above but pleated on a ScintiPlate TC 96-well microplate coated with a solid-phase scintillator (PerkinElmer). Hepatocytes and myocytes were washed, and culture medium was changed for medium with 0.5% BSA instead of serum. After 24 h incubation, the tested complexes were added. After 2 h incubation at 37 °C in 5% CO2, the medium was changed to low-glucose medium (1000 mg/L), and the tested complexes were added again, with further incubation for 4 h being conducted. […] Wortmannin at a final concentration of 200 nM (Sigma-Aldrich ) was used as a negative control. After that, cells were washed three times with cold KRB, and cytochalasin B (10 mM final) was added for several wells as a ‘‘no uptake” control, which proceeded as shown below.
For cells proceeded as above, 2-deoxy-D-[U-14C]-glucose (250–350 mCi/mmol, NEC720A, PerkinElmer) solution in KRB with a total activity of 0.03 mCi was added to each well. […] The radioactivity of samples was measured in a scintillation counter, MicroBeta Trilux 1450 (PerkinElmer). Non-specific radioactivity was subtracted from each result (cpm). […] The final results were expressed as percent of the control that contained solvent only instead of the tested compound.

hepatocytes HepG2 [2] = experiment: Inhibition of hepatic gluconeogenesis (glucose synthesis); details: known inhibitors of gluconeogenesis; concentration not given

T3 sequence (P29350 whole entry): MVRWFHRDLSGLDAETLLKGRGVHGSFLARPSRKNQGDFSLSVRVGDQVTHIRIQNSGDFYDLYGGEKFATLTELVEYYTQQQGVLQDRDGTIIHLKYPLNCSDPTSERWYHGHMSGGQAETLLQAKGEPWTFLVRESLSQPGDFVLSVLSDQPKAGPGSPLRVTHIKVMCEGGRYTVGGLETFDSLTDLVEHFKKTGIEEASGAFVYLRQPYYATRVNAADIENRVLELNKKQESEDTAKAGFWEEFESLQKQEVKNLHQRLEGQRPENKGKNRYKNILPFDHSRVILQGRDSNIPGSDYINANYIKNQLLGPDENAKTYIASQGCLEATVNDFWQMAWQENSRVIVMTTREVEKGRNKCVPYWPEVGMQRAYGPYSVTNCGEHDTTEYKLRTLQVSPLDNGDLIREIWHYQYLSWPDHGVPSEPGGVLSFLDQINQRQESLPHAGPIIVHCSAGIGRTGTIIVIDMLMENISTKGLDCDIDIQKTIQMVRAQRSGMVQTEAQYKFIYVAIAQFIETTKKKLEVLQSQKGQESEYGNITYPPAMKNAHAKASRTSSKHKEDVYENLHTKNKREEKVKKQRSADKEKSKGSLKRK

SMILES	Inhibition of PTP1B, percentage of inhibition of the control (PTP1B) [%]	Inhibition of LAR, percentage of inhibition of the control (LAR) [%]	Inhibition of SHP1, percentage of inhibition of the control (SHP1) [%]	Inhibition of SHP2, percentage of inhibition of the control (SHP2) [%]	Transport of [14C]-deoxy-D-glucose into 3T3-L1 adipocytes, % of control (adipocytes 3T3-L1)	Potentiation of [14C]-deoxy-D-glucose transport to hyperinsulinemia-induced insulin-resistant hepatocytes (hepatocytes HepG2 [1])	Inhibition of glucose synthesis by hepatocytes, experimental control compounds (hepatocytes HepG2 [2])
O=C(NN=Cc1cc(Br)ccc1[O][V]1[O]C(c2ccccc2O)=NN=Cc2cc(Br)ccc2[O]1)c1ccccc1O [VC029, [V(L7)(HL7)]]	31	25	62	68	statistically significant activity		
CN(C)C(=N)N=C(N)N [metformin]						did not potentiate	showed inhibition of glucose synthesis
